# Activity calls are given as the source filed them.
# Key:
# SUMO-activating enzyme = SUMO-activating enzyme (Homo sapiens, UniProt Q9UBT2); test: SUMOylation inhibitor hit validation, confirmation, SUMOylation inhibitor project, biochemical, AlphaScreen (AID 2018); type: functional
# X-box-binding protein 1 = biological target: T1, X-box-binding protein 1 (Homo sapiens, UniProt P17861); type: functional, Cricetulus griseus;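 also: confirmatory dose-response counter-screen serving a CHOP assay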
# T1 sequence (P17861 whole entry): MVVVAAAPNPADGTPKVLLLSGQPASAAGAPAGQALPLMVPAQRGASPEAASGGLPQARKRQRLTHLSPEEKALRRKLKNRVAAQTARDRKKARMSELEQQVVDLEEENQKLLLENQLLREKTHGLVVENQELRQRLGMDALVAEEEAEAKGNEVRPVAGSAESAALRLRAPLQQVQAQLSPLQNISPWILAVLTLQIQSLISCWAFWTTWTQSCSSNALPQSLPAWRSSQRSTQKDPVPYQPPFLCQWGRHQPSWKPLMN
# Mucolipin-3 = biological target: T2, Mucolipin-3 (Homo sapiens, UniProt Q8TDD5); test: Dose response cell-based high-throughput screening assay for agonists of the transient receptor potential channel ML3 (TRPML3). [Related pubchem assays: 1526, 1424, 1448 ]; type: functional
# T2 sequence (Q8TDD5 whole entry): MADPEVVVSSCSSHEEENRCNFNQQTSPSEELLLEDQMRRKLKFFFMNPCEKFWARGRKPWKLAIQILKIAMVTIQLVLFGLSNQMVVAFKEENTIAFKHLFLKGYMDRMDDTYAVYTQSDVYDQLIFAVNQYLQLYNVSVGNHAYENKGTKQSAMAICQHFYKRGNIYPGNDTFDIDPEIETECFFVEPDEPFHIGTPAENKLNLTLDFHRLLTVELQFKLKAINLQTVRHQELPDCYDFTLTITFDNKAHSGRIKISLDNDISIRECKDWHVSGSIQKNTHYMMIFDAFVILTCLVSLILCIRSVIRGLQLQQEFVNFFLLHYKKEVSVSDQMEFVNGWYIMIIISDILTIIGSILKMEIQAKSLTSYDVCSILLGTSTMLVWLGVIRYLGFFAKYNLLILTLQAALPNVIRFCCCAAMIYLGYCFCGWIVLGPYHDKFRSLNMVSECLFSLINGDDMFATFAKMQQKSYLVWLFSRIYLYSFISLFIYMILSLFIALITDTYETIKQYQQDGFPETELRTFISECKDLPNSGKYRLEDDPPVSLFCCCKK
# Ion channel NompC = Ion channel NompC (Danio rerio, UniProt Q7T1G6); test: Fluorescence counterscreen assay for TRPML3 agonists: dose response cell-based high-throughput screening assay to identify agonists of the transient receptor potential channel N1 (TRPN1). [Related pubchem assays: 1526, 1424, 1448 ]; type: functional
# Ion channel NompC, sequence (Q7T1G6 whole entry): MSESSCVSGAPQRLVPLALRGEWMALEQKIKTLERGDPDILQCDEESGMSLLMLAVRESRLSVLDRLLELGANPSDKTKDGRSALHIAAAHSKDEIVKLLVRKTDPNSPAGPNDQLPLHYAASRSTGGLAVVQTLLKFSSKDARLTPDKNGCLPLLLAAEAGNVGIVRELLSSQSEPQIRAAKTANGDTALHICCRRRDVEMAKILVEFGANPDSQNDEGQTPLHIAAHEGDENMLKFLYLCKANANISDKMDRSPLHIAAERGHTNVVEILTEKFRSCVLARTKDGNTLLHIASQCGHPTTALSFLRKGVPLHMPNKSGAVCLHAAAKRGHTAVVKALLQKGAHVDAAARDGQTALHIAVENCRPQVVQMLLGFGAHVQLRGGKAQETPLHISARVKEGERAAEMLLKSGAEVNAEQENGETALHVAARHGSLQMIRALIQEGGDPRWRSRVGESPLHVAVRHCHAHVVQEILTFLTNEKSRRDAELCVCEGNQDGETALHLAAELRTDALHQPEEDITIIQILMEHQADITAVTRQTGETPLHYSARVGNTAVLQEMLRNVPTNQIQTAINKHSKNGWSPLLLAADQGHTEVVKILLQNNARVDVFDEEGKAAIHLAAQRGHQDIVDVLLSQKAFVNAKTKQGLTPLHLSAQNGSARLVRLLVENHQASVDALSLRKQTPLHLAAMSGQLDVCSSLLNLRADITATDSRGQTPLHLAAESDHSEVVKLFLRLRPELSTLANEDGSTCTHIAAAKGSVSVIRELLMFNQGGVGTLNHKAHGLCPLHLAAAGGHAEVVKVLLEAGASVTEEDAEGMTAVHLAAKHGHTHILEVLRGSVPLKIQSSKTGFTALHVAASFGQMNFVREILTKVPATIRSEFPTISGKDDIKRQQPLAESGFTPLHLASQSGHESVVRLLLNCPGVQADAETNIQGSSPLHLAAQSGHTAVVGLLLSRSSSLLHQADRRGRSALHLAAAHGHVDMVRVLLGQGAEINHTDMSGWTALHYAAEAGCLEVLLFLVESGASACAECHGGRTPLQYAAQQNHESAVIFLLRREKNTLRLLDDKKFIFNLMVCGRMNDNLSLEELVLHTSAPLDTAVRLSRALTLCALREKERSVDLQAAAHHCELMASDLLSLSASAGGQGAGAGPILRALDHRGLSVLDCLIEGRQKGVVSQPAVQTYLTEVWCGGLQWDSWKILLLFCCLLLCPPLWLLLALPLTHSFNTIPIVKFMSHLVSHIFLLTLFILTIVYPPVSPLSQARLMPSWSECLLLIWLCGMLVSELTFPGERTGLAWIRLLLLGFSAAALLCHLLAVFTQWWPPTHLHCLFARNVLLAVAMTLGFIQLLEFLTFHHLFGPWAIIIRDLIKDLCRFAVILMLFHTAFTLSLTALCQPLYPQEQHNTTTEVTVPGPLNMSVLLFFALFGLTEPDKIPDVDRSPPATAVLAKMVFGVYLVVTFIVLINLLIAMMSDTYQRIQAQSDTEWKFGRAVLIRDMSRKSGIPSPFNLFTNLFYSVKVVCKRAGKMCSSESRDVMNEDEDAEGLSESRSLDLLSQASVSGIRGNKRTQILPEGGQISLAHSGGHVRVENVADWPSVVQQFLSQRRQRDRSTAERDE
# [1] = Luminescence Cell-Based Dose Retest to Confirm Inhibitors of Cancer Stem Cells. [Related pubchem assays (depositor defined):AID2717, AID2721]; type: functional; conditions: Homo sapiens
# [2] = biological target: Sphingosine 1-phosphate receptor 2 (Homo sapiens, UniProt O95136); test: Dose Response Cell Based Assay for Antagonists of the S1P2 Receptor. [Related pubchem assays: 856, 736 ]; type: functional
# Sphingosine 1-phosphate receptor 2, sequence (O95136 whole entry): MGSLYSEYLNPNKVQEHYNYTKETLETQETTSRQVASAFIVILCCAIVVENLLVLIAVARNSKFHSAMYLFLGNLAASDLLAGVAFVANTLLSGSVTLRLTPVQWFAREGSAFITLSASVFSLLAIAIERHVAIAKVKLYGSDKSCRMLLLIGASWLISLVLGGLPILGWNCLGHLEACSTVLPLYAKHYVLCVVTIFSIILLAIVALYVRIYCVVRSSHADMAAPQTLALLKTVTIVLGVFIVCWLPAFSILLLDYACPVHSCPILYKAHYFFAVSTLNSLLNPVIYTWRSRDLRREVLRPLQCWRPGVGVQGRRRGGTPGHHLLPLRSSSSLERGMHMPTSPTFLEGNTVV
# [3] = system: Streptococcus sp. 'group A'; test: growth inhibition of control SK(-) GAS strain, dose response, counter-screen for streptokinase expression inhibitor project, luminescence, kanamycin, BacTiterGlo, confirmation (AID 1900); type: functional, organism-based
# BJ [4] = test: cytotoxicity toward BJ-TERT fibroblasts, dose response, cell-based, RAS-independent, luminescence (AID 1933); type: functional; conditions: Homo sapiens
# BJ [5] = test: cells; type: functional, cell-based; conditions: Homo sapiens
# [6] = growth suppression of PTEN-null colon cells, dose response, cell-based, HCT116 PTEN knockout (AID 1047); type: functional;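 also: HCT116 colon tumor cells with PTEN knocked out; cells exposed to compound for 60 hours before readout; potency for loss of cell viability measured by luminescence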
# [7] = growth suppression of beta-catenin-knockout colon cells, dose response, cell-based, HCT116, human colon tumor (AID 1045); type: functional;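 also: HCT116 colon tumor cells with beta catenin knocked out; cells exposed to compound for 60 hours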
# BJ [8] = test: cytotoxicity toward BJ-TERT-LT-ST fibroblasts, dose response, cell-based, RAS-independent, luminescence (AID 1935); type: functional; conditions: Homo sapiens;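 also: BJ fibroblasts immortalized with TERT plus LT and ST oncogenes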
# [9] = cytotoxicity toward DRD oncogenic fibroblasts, dose response, cell-based, non-viral oncogenic, luminescence (AID 1934); type: functional; conditions: Homo sapiens
# Streptococcus = test: Group A Streptococcus viability loss, dose response, counter-screen for streptokinase expression inhibitor project, luminescence, BacTiterGlo (AID 1915); type: functional, organism-based;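 also: potency for reduction of bacterial viability or growth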
# BJ [10] = test: cytotoxicity toward Ras-transformed BJeLR fibroblasts, dose response, cell-based, alamar blue fluorescence, cherrypicked samples (AID 2631); type: functional; conditions: Homo sapiens;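 also: confirmatory dose-response assay in RAS-dependent BJ fibroblasts engineered with TERT, LT and ST, with cytotoxicity read by fluorescence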
# [11] = biological target: T3, Corticotropin-releasing factor receptor 2/Corticotropin-releasing factor-binding protein (Homo sapiens, UniProt P24387+Q13324); test: activators of CRF receptor 2 with binding protein – uHTS hits, confirmation (AID 602473); type: functional; conditions: read-out: EC50_Mean
# T3 sequence (Q13324 whole entry): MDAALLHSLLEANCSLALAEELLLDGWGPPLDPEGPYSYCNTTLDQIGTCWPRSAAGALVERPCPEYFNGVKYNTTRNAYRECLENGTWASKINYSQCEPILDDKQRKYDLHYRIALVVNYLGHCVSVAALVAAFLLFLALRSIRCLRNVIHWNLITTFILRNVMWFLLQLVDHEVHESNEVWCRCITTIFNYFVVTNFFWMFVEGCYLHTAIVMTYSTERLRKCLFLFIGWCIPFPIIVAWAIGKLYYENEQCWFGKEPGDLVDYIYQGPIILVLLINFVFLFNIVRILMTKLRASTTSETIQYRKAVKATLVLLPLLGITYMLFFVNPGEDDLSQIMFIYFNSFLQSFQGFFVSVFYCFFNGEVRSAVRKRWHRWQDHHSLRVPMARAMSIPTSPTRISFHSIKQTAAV
# T3 sequence (P24387 whole entry): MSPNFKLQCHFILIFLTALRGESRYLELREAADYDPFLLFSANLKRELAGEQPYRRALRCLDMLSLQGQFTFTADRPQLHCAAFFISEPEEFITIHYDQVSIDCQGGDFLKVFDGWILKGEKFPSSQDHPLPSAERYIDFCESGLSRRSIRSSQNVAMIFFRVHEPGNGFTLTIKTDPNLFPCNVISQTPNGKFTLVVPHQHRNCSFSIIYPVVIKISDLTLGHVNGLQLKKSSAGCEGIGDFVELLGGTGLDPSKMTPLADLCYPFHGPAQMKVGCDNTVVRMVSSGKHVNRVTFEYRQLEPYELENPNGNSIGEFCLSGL
# [12] = biological target: T4, Histone-lysine N-methyltransferase NSD2 (Homo sapiens, UniProt O96028); type: biochemical
# T4 sequence (O96028 whole entry): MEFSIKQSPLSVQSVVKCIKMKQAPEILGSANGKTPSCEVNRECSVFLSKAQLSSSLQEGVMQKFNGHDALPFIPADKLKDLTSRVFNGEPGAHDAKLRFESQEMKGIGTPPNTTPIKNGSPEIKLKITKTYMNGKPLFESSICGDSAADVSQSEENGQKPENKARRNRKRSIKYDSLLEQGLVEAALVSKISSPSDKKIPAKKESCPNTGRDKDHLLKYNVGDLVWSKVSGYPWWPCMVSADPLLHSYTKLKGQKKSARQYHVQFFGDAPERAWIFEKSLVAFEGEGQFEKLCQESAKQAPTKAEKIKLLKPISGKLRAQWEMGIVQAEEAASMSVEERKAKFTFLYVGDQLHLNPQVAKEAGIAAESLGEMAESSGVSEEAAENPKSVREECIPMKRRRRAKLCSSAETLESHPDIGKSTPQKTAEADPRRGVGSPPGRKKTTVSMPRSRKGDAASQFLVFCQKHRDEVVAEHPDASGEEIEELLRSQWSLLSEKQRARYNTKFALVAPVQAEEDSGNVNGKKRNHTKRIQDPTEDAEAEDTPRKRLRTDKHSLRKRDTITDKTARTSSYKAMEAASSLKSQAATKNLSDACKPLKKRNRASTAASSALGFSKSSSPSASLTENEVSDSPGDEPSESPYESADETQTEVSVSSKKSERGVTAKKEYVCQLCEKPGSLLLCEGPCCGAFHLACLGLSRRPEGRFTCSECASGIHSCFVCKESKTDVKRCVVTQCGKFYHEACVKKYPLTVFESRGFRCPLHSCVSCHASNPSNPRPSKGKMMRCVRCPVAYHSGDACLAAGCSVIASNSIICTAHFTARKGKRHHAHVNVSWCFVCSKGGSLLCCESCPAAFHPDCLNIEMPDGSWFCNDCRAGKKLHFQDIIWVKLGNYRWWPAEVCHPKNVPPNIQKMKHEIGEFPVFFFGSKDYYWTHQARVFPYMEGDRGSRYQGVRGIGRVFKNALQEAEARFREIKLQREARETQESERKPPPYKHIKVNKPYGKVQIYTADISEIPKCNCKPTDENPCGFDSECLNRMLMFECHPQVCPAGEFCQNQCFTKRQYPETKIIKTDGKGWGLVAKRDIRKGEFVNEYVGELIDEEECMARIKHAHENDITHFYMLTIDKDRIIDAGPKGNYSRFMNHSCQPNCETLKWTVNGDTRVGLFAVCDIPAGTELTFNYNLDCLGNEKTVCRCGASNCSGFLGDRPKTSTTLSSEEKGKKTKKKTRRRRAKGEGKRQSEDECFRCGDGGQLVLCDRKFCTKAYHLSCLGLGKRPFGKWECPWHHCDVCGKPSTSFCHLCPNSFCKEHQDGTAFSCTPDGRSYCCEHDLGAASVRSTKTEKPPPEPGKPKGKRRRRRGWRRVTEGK
# [13] = biological target: T5, Mannose-6-phosphate isomerase (Homo sapiens, UniProt P34949); test: human PMI inhibitors, high substrate, primary screen, biochemical, fluorescence intensity, high mannose 6-phosphate (AID 1220)
# T5 sequence (P34949 whole entry): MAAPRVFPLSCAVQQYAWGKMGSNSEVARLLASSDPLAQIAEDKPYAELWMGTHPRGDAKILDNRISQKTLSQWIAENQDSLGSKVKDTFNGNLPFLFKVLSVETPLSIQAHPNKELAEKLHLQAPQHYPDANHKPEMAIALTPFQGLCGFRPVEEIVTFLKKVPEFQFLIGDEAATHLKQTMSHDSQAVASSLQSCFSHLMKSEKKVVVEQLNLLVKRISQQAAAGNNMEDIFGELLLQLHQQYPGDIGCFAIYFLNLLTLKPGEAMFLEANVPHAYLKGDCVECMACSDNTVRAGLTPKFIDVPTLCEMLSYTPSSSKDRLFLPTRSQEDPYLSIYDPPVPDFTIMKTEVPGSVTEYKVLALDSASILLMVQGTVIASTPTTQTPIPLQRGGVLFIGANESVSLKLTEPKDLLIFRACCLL
# fMet-Leu-Phe receptor = biological target: T6, fMet-Leu-Phe receptor (Homo sapiens, UniProt P21462); test: FPR ligands, dose response (AID 519); type: functional
# T6 sequence (P21462 whole entry): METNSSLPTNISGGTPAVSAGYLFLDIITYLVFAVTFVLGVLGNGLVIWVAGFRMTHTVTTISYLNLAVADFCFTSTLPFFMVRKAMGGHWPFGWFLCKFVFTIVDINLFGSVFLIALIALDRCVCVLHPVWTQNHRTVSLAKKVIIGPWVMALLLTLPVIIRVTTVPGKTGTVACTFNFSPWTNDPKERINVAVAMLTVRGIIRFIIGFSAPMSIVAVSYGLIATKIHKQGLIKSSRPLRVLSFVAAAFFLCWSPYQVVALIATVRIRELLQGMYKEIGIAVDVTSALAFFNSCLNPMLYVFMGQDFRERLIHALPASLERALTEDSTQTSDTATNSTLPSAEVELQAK
# SUMO-activating enzyme, sequence (Q9UBE0 whole entry): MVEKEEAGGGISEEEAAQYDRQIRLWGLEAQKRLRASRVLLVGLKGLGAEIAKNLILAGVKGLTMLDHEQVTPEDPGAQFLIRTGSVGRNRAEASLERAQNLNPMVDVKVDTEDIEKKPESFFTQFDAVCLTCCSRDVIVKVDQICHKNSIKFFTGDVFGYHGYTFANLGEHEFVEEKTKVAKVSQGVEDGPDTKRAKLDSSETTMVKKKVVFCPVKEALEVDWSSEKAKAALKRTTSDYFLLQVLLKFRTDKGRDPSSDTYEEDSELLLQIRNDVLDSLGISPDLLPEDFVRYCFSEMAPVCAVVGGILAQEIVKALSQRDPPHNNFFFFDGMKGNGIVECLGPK
# SUMO-activating enzyme, sequence (Q9UBT2 whole entry): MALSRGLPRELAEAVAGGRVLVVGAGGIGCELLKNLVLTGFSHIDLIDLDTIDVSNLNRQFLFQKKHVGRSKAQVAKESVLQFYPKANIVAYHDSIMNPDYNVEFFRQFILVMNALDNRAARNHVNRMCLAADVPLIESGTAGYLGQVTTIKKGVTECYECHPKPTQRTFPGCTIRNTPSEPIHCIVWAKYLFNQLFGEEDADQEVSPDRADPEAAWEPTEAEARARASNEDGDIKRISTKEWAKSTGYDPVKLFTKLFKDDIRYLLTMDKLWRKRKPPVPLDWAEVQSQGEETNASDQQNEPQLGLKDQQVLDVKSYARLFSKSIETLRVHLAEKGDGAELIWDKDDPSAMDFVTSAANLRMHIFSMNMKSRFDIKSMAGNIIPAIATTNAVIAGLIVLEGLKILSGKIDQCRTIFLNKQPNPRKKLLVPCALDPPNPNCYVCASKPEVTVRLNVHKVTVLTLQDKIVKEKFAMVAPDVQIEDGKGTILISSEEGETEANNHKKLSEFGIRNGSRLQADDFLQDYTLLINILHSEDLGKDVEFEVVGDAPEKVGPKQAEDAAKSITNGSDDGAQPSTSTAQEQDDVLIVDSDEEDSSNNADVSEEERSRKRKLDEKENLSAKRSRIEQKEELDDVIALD
smiles,measurement,setting,value
Cc1cccc(NC(=O)/C(C#N)=C/c2cn(CC(=O)NCc3ccco3)c3ccccc23)c1C,IC50,SUMO-activating enzyme,36.2 µM (active)
same,Absolute IC50 (XBP1),X-box-binding protein 1,< 10 µM
O=C1C2C3C=CC(C3)C2C(=O)N1c1ccc(N2CCN(c3ccccn3)CC2)c([N+](=O)[O-])c1 (configuration not stated),EC50,Mucolipin-3,> 29.9 µM (not active)
same,EC50,Ion channel NompC,> 29.9 µM (not active)
same,AC50,[1],0.619 µM (active)
CCN1/C(=C\C=C\C2=[N+](CC)c3ccccc3C2(C)C)C(C)(C)c2ccccc21.[O-][Cl+3]([O-])([O-])[O-],IC50,[2],0.587 µM (active)
same,EC50,[3],5.96 µM (active)
same,EC50,BJ [4],0.395 µM (inconclusive)
same,EC50,BJ [5],0.664 µM (active)
same,EC50,[6],< 0.059 µM (active)
same,EC50,[7],< 0.059 µM (active)
same,EC50,BJ [8],2.01 µM (active)
same,EC50,[9],0.903 µM (active)
same,EC50,Streptococcus,19.5 µM (active)
same,EC50,BJ [10],0.273 µM (active)
same,EC50,[11],3.74 µM (active)
same,AC50,[12],> 20 µM (inactive)
COC(=O)c1cnc(N2CCCN(S(=O)(=O)c3ccccc3)CC2)nc1C(F)(F)F,EC50,Mucolipin-3,> 29.9 µM (not active)
same,EC50,Ion channel NompC,> 29.9 µM (not active)
O=C(NCCN1CCOCC1)NC1(C(F)(F)F)Oc2ccc(Cl)cc2O1 (configuration not stated),IC50,[13],> 50 µM (not active)
same,AC50,[1],7.37 µM (active)
same,Ki,fMet-Leu-Phe receptor,> 66.7 µM (inactive)

# Reference: ChEMBL document CHEMBL1201862, “PubChem BioAssay data set” (2004)
